Measurements published in ChEMBL document CHEMBL5726791, “Inhibitors of lysine specific demethylase-1” (2018).

Molecular target: Lysine-specific histone demethylase 1A (Homo sapiens, UniProt O60341)
Experiment: In Vitro Enzyme Inhibition Assay: The enzymatic assay of LSD1 activity is based on Time Resolved-Fluorescence Resonance Energy Transfer (TR-FRET) detection. The inhibitory properties of compounds to LSD1 were determined in 384-well plate format under the following reaction conditions: 0.1-0.5 nM LSD1, 50 nM H3K4mel-biotin labeled peptide (Anaspec cat #64355), 2 μM FAD in assay buffer of 50 mM HEPES, pH7.3, 10 mM NaCl, 0.005% Brij35, 0.5 mM TCEP, 0.2 mg/ml BSA. Reaction product was determined quantitatively by TR-FRET after the addition of detection reagent Phycolink Streptavidin-allophycocyanin (Prozyme) and Europium-anti-unmodified histone H3 lysine 4 (H3K4) antibody (PerkinElmer) in the presence of LSD1 inhibitor such as 1.8 mM of Tranylcypromine hydrochloride (2-PCPA) in LANCE detection buffer (PerkinElmer) to final concentration of 12.5 nM and 0.25 nM respectively.

- IC50: < 100 nM
Structure (SMILES): Cn1ncc2cc(-c3sc(N4CC[C@@H]5CNC[C@@H]5CC4)nc3-c3ccc(C#N)cc3)ccc21
